From PubChem BioAssay AID220 (DTP/NCI, 2004)
Values joined by “and” are separate entries in the source; they are usually repeats but may differ in a detail not shown here. Equal entries are not always repeated. Inconclusive results are not listed.

Test system: CD8F1 mice, subcutaneous mammary adenocarcinoma, T/C%
Assay: NCI In Vivo Anticancer Drug Screen. Data for tumor model Mammary Adenocarcinoma CD8F1 (subcutaneous) in CD8F1
Conditions: higher = larger tumour
Method in brief: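 Mice carrying transplanted tumors received test compound, and survival or tumor size was recorded. Each value is the treated-group measurement divided by the corresponding measurement in vehicle-dosed controls.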

[1] = endpoint: median tumor weight (est.), dose: 25.0 mg/kg/injection, schedule: Q07DX005 (ip), vehicle: Klucel (hydroxypropylcellulose) (HPC)
[2] = endpoint: median tumor weight (est.), dose: 200.0 mg/kg/injection, schedule: Q07DX005 (ip), vehicle: Klucel (hydroxypropylcellulose) (HPC)
[3] = endpoint: median tumor weight (est.), dose: 400.0 mg/kg/injection, schedule: Q07DX005 (ip), vehicle: Klucel (hydroxypropylcellulose) (HPC)
[4] = endpoint: median tumor weight change, dose: 125.0 mg/kg/injection, schedule: Q01DX001 (ip), vehicle: saline with Tween-80
[5] = endpoint: median tumor weight change, dose: 500.0 mg/kg/injection, schedule: Q01DX001 (ip), vehicle: saline with Tween-80
[6] = endpoint: median tumor weight (est.), dose: 1.0 mg/kg/injection, schedule: Q07DX005 (ip), vehicle: saline

## Ic1ncnc2c1ncn2C1CCCO1 (stereo not given)
[1]
  T/C: 36 % of control
[2]
  T/C: 55 % of control and 64 % of control
[3]
  T/C: 41 % of control

## CN(C)P(=O)(Oc1ccccc1)N(C)C
endpoint: median tumor weight change, dose: 62.5 mg/kg/injection, schedule: Q01DX001 (ip), vehicle: saline with Tween-80
  T/C: 86 % of control
[4]
  T/C: 63 % of control
[5]
  T/C: 94 % of control

## C/C=C/C1=CC(=O)C(O)C1O (stereo not given)
endpoint: median tumor weight (est.), dose: 45.0 mg/kg/injection, schedule: Q07DX005 (ip), vehicle: water
  T/C: 122 % of control
endpoint: median tumor weight (est.), dose: 90.0 mg/kg/injection, schedule: Q07DX005 (ip), vehicle: water
  T/C: 78 % of control
endpoint: median tumor weight (est.), dose: 180.0 mg/kg/injection, schedule: Q07DX005 (ip), vehicle: water
  T/C: 107 % of control

## Cc1ccccc1SSc1ccccc1C
endpoint: median tumor weight (est.), dose: 50.0 mg/kg/injection, schedule: Q07DX005 (ip), vehicle: saline with Tween-80
  T/C: 159 % of control
endpoint: median tumor weight (est.), dose: 100.0 mg/kg/injection, schedule: Q07DX005 (ip), vehicle: saline with Tween-80
  T/C: 123 % of control
endpoint: median tumor weight (est.), dose: 200.0 mg/kg/injection, schedule: Q07DX005 (ip), vehicle: saline with Tween-80
  T/C: 179 % of control

## ClCCCCCCCCCCc1ccccc1
endpoint: median tumor weight (est.), dose: 12.5 mg/kg/injection, schedule: Q07DX005 (ip), vehicle: Klucel (hydroxypropylcellulose) (HPC)
  T/C: 87 % of control
[1]
  T/C: 88 % of control
endpoint: median tumor weight (est.), dose: 100.0 mg/kg/injection, schedule: Q07DX005 (ip), vehicle: Klucel (hydroxypropylcellulose) (HPC)
  T/C: 71 % of control
[2]
  T/C: 71 % of control
[3]
  T/C: 72 % of control

## O=CC(=O)c1ccc(O)cc1
endpoint: median tumor weight (est.), dose: 12.5 mg/kg/injection, schedule: Q07DX005 (ip), vehicle: suspension in saline
  T/C: 102 % of control
endpoint: median tumor weight (est.), dose: 25.0 mg/kg/injection, schedule: Q07DX005 (ip), vehicle: suspension in saline
  T/C: 111 % of control
endpoint: median tumor weight (est.), dose: 50.0 mg/kg/injection, schedule: Q07DX005 (ip), vehicle: suspension in saline
  T/C: 123 % of control
endpoint: median tumor weight (est.), dose: 100.0 mg/kg/injection, schedule: Q07DX005 (ip), vehicle: suspension in saline
  T/C: 114 % of control

## C1CN1c1nc(N2CC2)nc(N2CC2)n1
endpoint: median tumor weight (est.), dose: 0.12 mg/kg/injection, schedule: Q07DX005 (ip), vehicle: saline
  T/C: 64 % of control and 86 % of control
endpoint: median tumor weight (est.), dose: 0.25 mg/kg/injection, schedule: Q07DX005 (ip), vehicle: saline
  T/C: 23 % of control and 28 % of control
endpoint: median tumor weight (est.), dose: 0.5 mg/kg/injection, schedule: Q07DX005 (ip), vehicle: saline
  T/C: 6 % of control and 10 % of control
[6]
  T/C: 1 % of control
endpoint: median tumor weight change, dose: 0.62 mg/kg/injection, schedule: Q01DX001 (ip), vehicle: suspension in saline
  T/C: 18 % of control
endpoint: median tumor weight change, dose: 2.5 mg/kg/injection, schedule: Q01DX001 (ip), vehicle: suspension in saline
  T/C: -17 % of control and -41 % of control

## Nc1ccc(Cl)cc1N
endpoint: median tumor weight (est.), dose: 12.5 mg/kg/injection, schedule: Q07DX005 (ip), vehicle: saline + alcohol
  T/C: 92 % of control
endpoint: median tumor weight (est.), dose: 25.0 mg/kg/injection, schedule: Q07DX005 (ip), vehicle: saline + alcohol
  T/C: 100 % of control
endpoint: median tumor weight (est.), dose: 50.0 mg/kg/injection, schedule: Q07DX005 (ip), vehicle: saline + alcohol
  T/C: 100 % of control
endpoint: median tumor weight (est.), dose: 100.0 mg/kg/injection, schedule: Q07DX005 (ip), vehicle: saline + alcohol
  T/C: 88 % of control
endpoint: median tumor weight (est.), dose: 200.0 mg/kg/injection, schedule: Q07DX005 (ip), vehicle: saline + alcohol
  T/C: 123 % of control

## [O-][n+]1c(CN2CCCCC2)nc2cccc3c2c1-c1ccccc1-3
[4]
  T/C: 78 % of control
endpoint: median tumor weight change, dose: 250.0 mg/kg/injection, schedule: Q01DX001 (ip), vehicle: saline with Tween-80
  T/C: 104 % of control
[5]
  T/C: 84 % of control

## O=NN(CCCl)C(=O)NC1OC(CO)C(O)C(O)C1O (stereo not given)
endpoint: median tumor weight (est.), dose: 1.25 mg/kg/injection, schedule: Q07DX005 (ip), vehicle: saline
  T/C: 113 % of control
endpoint: median tumor weight (est.), dose: 2.5 mg/kg/injection, schedule: Q07DX005 (ip), vehicle: saline
  T/C: 91 % of control
endpoint: median tumor weight (est.), dose: 5.0 mg/kg/injection, schedule: Q07DX005 (ip), vehicle: saline
  T/C: 106 % of control
endpoint: median tumor weight (est.), dose: 10.0 mg/kg/injection, schedule: Q07DX005 (ip), vehicle: saline
  T/C: 29 % of control

## Oc1c(Cl)cc(Cl)cc1C=NCCSc1ccc(Cl)cc1
endpoint: median tumor weight change, dose: 62.5 mg/kg/injection, schedule: Q01DX001 (ip), vehicle: Klucel (hydroxypropylcellulose) (HPC)
  T/C: 99 % of control and 100 % of control
endpoint: median tumor weight change, dose: 125.0 mg/kg/injection, schedule: Q01DX001 (ip), vehicle: Klucel (hydroxypropylcellulose) (HPC)
  T/C: 89 % of control and 104 % of control
endpoint: median tumor weight change, dose: 250.0 mg/kg/injection, schedule: Q01DX001 (ip), vehicle: Klucel (hydroxypropylcellulose) (HPC)
  T/C: 87 % of control and 103 % of control

## N[C@H](C(=O)O)[C@@H]1CC(Cl)=NO1
[6]
  T/C: 167 % of control
endpoint: median tumor weight (est.), dose: 2.0 mg/kg/injection, schedule: Q07DX005 (ip), vehicle: saline
  T/C: 92 % of control and 100 % of control and 101 % of control
endpoint: median tumor weight (est.), dose: 128.0 mg/kg/injection, schedule: Q07DX005 (ip), vehicle: saline
  T/C: 13 % of control
